Calls of active or inactive are those of the source. The rule behind the calls is not given here.
Test system: GENE-TOX genotoxicity assays, various organisms and cells
Test: GENE-TOX mutagenicity studies
[1] = Species/Cell Type: Mammalian polychromatic erythrocytes, Assay Type: Micronucleus test, chromosome aberrations, Assay Code: MNTT, Evaluation Type: Evaluation B (Post-1980)
[2] = Species/Cell Type: Rodents, Sex: Male, Assay Type: Dominant lethal test, Assay Code: DLT-, Evaluation Type: Evaluation A (Pre-1980)
[3] = Species/Cell Type: Mouse lymphoma (L5178Y) cells, Assay Type: Forward gene mutation at the thymidine kinase (TK) locus, chromosome aberrations, Assay Code: L51+, Evaluation Type: Evaluation A (Pre-1980)
[4] = Species/Cell Type: Drosophila melanogaster, Assay Type: Sex-linked recessive lethal gene mutation, Assay Code: SRL+, Evaluation Type: Evaluation A (Pre-1980)
[5] = Species/Cell Type: Salmonella typhimurium (one or more of the five standard strains: TA98, TA100, TA1535, TA1537, and TA1538), Assay Type: Histidine reverse gene mutation, Ames assay, Assay Code: SAL+*, Activation: With metabolic activation, Evaluation Type: Evaluation A (Pre-1980)
[6] = Species/Cell Type: Nonhuman, Assay Type: Sister-chromatid exchange (SCE) in vitro, Assay Code: SC2+D, Dose Response: With dose response, Evaluation Type: Evaluation B (Post-1980)

Question: Which mutagenic call (Species/Cell Type: Mammalian cell culture, nonhuman, Assay Type: Micronucleus test in vitro, chromosome aberrations, Assay Code: MN&+, Evaluation Type: Evaluation A (Pre-1980)) does the source give for CC[N+](C)(CC)CCC[n+]1c(-c2ccccc2)c2cc(N)ccc2c2ccc(N)cc21 here?
Answer: active; positive

Question: With C=COCC as the compound, how does the mutagenic call (Species/Cell Type: Nonhuman, Assay Type: Sister-chromatid exchange (SCE) in vitro, Assay Code: SC2+, Evaluation Type: Evaluation B (Post-1980)) read?
Answer: active; positive

Question: Which mutagenic call (Species/Cell Type: Escherichia coli polA (W3119 vs P3478), Assay Type: Rec-assay, DNA effects (bacterial DNA repair), Assay Code: RE1T, Evaluation Type: Evaluation A (Pre-1980)) does the source give for NC1(C(=O)O)CCCC1 here?
Answer: no conclusion

Question: How did the mutagenic call [1] turn out when O=C(O)/C=C/c1ccc(O)c(O)c1 was run?
Answer: no conclusion

Question: How did the mutagenic call (Species/Cell Type: Human, Assay Type: Sister-chromatid exchange (SCE) in vitro, Assay Code: SC1T, Evaluation Type: Evaluation B (Post-1980)) turn out when CC1(C)[C@@H](O[C@H]2O[C@H](C(=O)O)[C@@H](O)[C@H](O)[C@H]2O[C@@H]2O[C@H](C(=O)O)[C@@H](O)[C@H](O)[C@H]2O)CC[C@]2(C)[C@H]3C(=O)C=C4[C@@H]5C[C@@](C)(C(=O)O)CC[C@]5(C)CC[C@@]4(C)[C@]3(C)CC[C@@H]12 was run?
Answer: no conclusion

Question: COc1cc(/C=N/NC(=O)COc2ccc(Br)cc2CN2CCOCC2)ccc1O was tested. Which mutagenic call (Species/Cell Type: Saccharomyces cerevisiae, Assay Type: Reverse gene mutation, Assay Code: YERT, Evaluation Type: Evaluation A (Pre-1980)) did it give?
Answer: no conclusion

Question: For CC(C)C(=O)Nc1ccc([N+](=O)[O-])c(C(F)(F)F)c1, which mutagenic call [2] is on record?
Answer: inactive; negative

Question: CC1CCCCN1CCNc1ccc(CO)c2sc3ccccc3c(=O)c12 (centres undefined) was tested. Which mutagenic call [3] did it give?
Answer: active; positive

Question: What does the source list for CN(CCO)c1nc(Nc2ccccc2)nc(Nc2ccc(/C=C/c3ccc(Nc4nc(Nc5ccccc5)nc(N(C)CCO)n4)cc3S(=O)(=O)O)c(S(=O)(=O)O)c2)n1?
Answer: mutagenic call [2]: inactive; negative; mutagenic call (Species/Cell Type: Salmonella typhimurium (one or more of the five standard strains: TA98, TA100, TA1535, TA1537, and TA1538), Assay Type: Histidine reverse gene mutation, Ames assay, Assay Code: SALT, Evaluation Type: Evaluation A (Pre-1980)): no conclusion

Question: Which mutagenic call [4] does the source give for OCNc1nc(NCO)nc(NCO)n1 here?
Answer: active; positive

Question: Which mutagenic call [5] does the source give for CC1=CCCc2c1cc(C)c1c2ccc2ccccc21 here?
Answer: active; positive

Question: Which results are given for CCCNP(=O)(N1CC1)N1CC1?
Answer: mutagenic call [4]: active; positive; mutagenic call (Species/Cell Type: Nonhuman, Assay Type: Chromosome aberrations in vitro, Assay Code: CY&+, Evaluation Type: Evaluation A (Pre-1980)): active; positive; mutagenic call (Species/Cell Type: Schizosaccharomyces pombe, Assay Type: Reverse gene mutation, Assay Code: YEZ+, Evaluation Type: Evaluation A (Pre-1980)): active; positive

Question: With [I][Hg][I] as the compound, how does the mutagenic call (Species/Cell Type: Nonhuman, Assay Type: Sister-chromatid exchange (SCE) in vitro, Assay Code: SC2-, Evaluation Type: Evaluation B (Post-1980)) read?
Answer: inactive; negative

Question: With CCOP(=O)(N=C1SCC(C)S1)OCC (centres undefined) as the compound, how does the mutagenic call (Species/Cell Type: Hordeum vulgare (barley), Assay Type: Chromosome aberrations, Assay Code: HOC+D, Dose Response: With dose response, Evaluation Type: Evaluation A (Pre-1980)) read?
Answer: active; positive

Question: For COc1cc2c(c3oc(=O)c4c(c13)CC[C@@H]4O)[C@@H]1C=CO[C@@H]1O2, which mutagenic call (Species/Cell Type: Human diploid fibroblasts, Assay Type: Unscheduled DNA synthesis (UDS) in vitro, DNA effects, Assay Code: UDH+D, Dose Response: With dose response, Evaluation Type: Evaluation A (Pre-1980)) is on record?
Answer: active; positive

Question: What about the mutagenic call [5] of the same compound?
Answer: active; positive

Question: For NC(=O)c1cccc(N)c1, which mutagenic call (Species/Cell Type: Chinese hamster ovary (CHO) cells, Assay Type: Forward gene mutation at the HPRT locus, Assay Code: CHOT, Evaluation Type: Evaluation B (Post-1980)) is on record?
Answer: no conclusion

Question: And the mutagenic call (Species/Cell Type: Human, Assay Type: Sister-chromatid exchange (SCE) in vitro, Assay Code: SC1+D, Dose Response: With dose response, Evaluation Type: Evaluation B (Post-1980))?
Answer: active; positive

Question: What about the mutagenic call [6] of the same compound?
Answer: active; positive

Question: Which mutagenic call (Species/Cell Type: Aspergillus nidulans, Assay Type: Forward gene mutation, Assay Code: ASF+, Evaluation Type: Evaluation A (Pre-1980)) does the source give for BrCCBr here?
Answer: active; positive

Question: And the mutagenic call (Species/Cell Type: Chinese hamster ovary (CHO) cells, Assay Type: Forward gene mutation at the HPRT locus, Assay Code: CHO+, Evaluation Type: Evaluation B (Post-1980))?
Answer: active; positive

Question: And the mutagenic call [4]?
Answer: active; positive

Question: What about the mutagenic call (Species/Cell Type: Escherichia coli polA (W3119 vs P3478), Assay Type: Rec-assay, DNA effects (bacterial DNA repair), Assay Code: RE1+, Evaluation Type: Evaluation A (Pre-1980)) of the same compound?
Answer: active; positive

Question: What about the mutagenic call (Species/Cell Type: Fischer rat embryo (RLV/1706) cells, Assay Type: Cell transformation, viral enhanced, Assay Code: CTR+, Evaluation Type: Evaluation A (Pre-1980)) of the same compound?
Answer: active; positive

Question: And the mutagenic call (Species/Cell Type: Human lymphocytes, Assay Type: Sister-chromatid exchange (SCE) in vitro, Assay Code: SCL+, Evaluation Type: Evaluation B (Post-1980))?
Answer: active; positive

Question: And the mutagenic call (Species/Cell Type: Human, Assay Type: Sister-chromatid exchange (SCE) in vitro, Assay Code: SC1+, Evaluation Type: Evaluation B (Post-1980))?
Answer: active; positive

Question: And the mutagenic call (Species/Cell Type: Human, Sex: Male, Assay Type: Sperm morphology, Assay Code: SPH+, Evaluation Type: Evaluation A (Pre-1980))?
Answer: active; positive

Question: What about the mutagenic call [1] of the same compound?
Answer: no conclusion

Question: What about the mutagenic call (Species/Cell Type: Mouse germ cells, Sex: Male, Assay Type: Unscheduled DNA synthesis (UDS) in vivo, DNA effects, Assay Code: UDT-, Evaluation Type: Evaluation A (Pre-1980)) of the same compound?
Answer: inactive; negative

Question: And the mutagenic call [3]?
Answer: active; positive

Question: And the mutagenic call (Species/Cell Type: Neurospora crassa, Assay Type: Forward gene mutation, Assay Code: NEF+, Evaluation Type: Evaluation A (Pre-1980))?
Answer: active; positive

Question: And the call (Species/Cell Type: Nonhuman, Assay Type: In vivo carcinogenicity studies, Assay Code: CCG+, Evaluation Type: Evaluation A (Pre-1980))?
Answer: active; positive

Question: What about the mutagenic call [6] of the same compound?
Answer: active; positive

Question: What about the mutagenic call (Species/Cell Type: Nonhuman, Assay Type: Sister-chromatid exchange (SCE) in vivo, Assay Code: SC3+, Evaluation Type: Evaluation B (Post-1980)) of the same compound?
Answer: active; positive

Question: And the mutagenic call (Species/Cell Type: Plant, Assay Type: Micronucleus test, chromosome aberrations, Assay Code: MNP+, Evaluation Type: Evaluation A (Pre-1980))?
Answer: active; positive

Question: And the mutagenic call (Species/Cell Type: Saccharomyces cerevisiae, Assay Type: Mitotic recombination or gene conversion, Assay Code: YEC+, Evaluation Type: Evaluation A (Pre-1980))?
Answer: active; positive

Question: What about the mutagenic call (Species/Cell Type: Salmonella typhimurium, Assay Type: Forward and reverse gene mutation, body fluid assay, Assay Code: BFUT, Evaluation Type: Evaluation A (Pre-1980)) of the same compound?
Answer: no conclusion

Question: And the mutagenic call (Species/Cell Type: Salmonella typhimurium, Assay Type: Forward and reverse gene mutation, host-mediated assay, Assay Code: HMA+, Evaluation Type: Evaluation A (Pre-1980))?
Answer: active; positive

Question: And the mutagenic call (Species/Cell Type: Syrian hamster embryo (SA7/SHE) cells, Assay Type: Cell transformation, viral enhanced, Assay Code: CT7+, Evaluation Type: Evaluation A (Pre-1980))?
Answer: active; positive

Question: And the mutagenic call (Species/Cell Type: Tradescantia species, Assay Type: Chromosome aberrations, Assay Code: TRC+D, Dose Response: With dose response, Evaluation Type: Evaluation A (Pre-1980))?
Answer: active; positive

Question: And the mutagenic call (Species/Cell Type: Tradescantia species, Assay Type: Gene mutation, Assay Code: TRM+D, Dose Response: With dose response, Evaluation Type: Evaluation A (Pre-1980))?
Answer: active; positive
